{"source": "paper PMC8713167", "about": "“New Insights into the Structure–Activity Relationship and Neuroprotective Profile of Benzodiazepinone Derivatives of Neurounina-1 as Modulators of the Na^+/Ca^2+ Exchanger Isoforms” (Journal of Medicinal Chemistry, 2021)", "key": {"NCX1 [1]": {"biological_target": "T1, NCX1 (Canis lupus familiaris, UniProt P23685)", "T1 construct": "expressed in transfected cells; host or cells: BHK (baby hamster kidney) cells, stably transfected", "experiment": "High-throughput screening of NCX1 reverse mode, Fluo-4-loaded BHK-NCX1 cells, Na+-free pulse", "assay_type": "cell-based, dog", "details": "for Effect on NCX1 activity in the reverse mode (screening, in words): BHK-NCX1, 10 nM and 10 μM; for Fluo-experiments on BHK-NCX1: NCX1 reverse mode, Na+-free, CTL (100), concentration not given (10 nM and 10 μM screened)"}, "NCX3 [2]": {"biological_target": "T2, NCX3 (Rattus norvegicus, UniProt P70549)", "T2 construct": "expressed in transfected cells; host or cells: BHK (baby hamster kidney) cells, stably transfected", "T2 sequence (P70549 31-927)": "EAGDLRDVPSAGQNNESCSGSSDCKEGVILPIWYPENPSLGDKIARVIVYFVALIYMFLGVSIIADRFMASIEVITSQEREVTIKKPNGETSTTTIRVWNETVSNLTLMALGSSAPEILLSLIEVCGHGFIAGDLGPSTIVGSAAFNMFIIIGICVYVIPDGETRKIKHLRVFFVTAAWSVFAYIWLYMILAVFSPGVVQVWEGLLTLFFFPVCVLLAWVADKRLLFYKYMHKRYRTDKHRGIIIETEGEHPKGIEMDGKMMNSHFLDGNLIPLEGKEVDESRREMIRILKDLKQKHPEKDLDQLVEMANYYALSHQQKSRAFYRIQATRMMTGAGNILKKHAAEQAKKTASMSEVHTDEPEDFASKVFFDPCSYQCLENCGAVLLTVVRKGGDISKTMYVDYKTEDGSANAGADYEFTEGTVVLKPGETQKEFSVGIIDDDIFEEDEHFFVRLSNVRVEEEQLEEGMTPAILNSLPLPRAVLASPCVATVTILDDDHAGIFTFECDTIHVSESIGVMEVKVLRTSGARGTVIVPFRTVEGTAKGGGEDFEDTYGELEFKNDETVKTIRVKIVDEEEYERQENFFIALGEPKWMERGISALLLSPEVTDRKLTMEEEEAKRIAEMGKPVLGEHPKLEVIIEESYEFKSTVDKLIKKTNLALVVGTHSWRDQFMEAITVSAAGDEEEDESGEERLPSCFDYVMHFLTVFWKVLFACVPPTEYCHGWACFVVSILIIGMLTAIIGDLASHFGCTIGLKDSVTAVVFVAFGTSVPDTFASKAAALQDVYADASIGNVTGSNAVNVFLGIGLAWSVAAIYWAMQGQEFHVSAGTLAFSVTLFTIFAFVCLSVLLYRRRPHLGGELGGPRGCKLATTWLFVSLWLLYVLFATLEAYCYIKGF", "experiment": "High-throughput screening of NCX3 reverse mode, Fluo-4-loaded BHK-NCX3 cells, Na+-free pulse", "assay_type": "cell-based", "details": "CTL (100), concentration not given (10 nM and 10 μM screened)"}, "NCX1 [3]": {"biological_target": "T1, NCX1", "experiment": "Whole-cell patch-clamp electrophysiology of INCX in BHK-NCX1 cells", "assay_type": "cell-based, dog", "details": "CTL100; for Patch-clamp-experiments on BHK-NCX1, forward mode: forward mode (−120 mV); for Patch-clamp-experiments on BHK-NCX1, reverse mode: reverse mode (+60 mV)"}, "NCX1 [4]": {"biological_target": "T1, NCX1", "experiment": "Single-cell Fura-2AM video-imaging, Na+-free-induced [Ca2+]i increase in BHK-NCX1 cells", "assay_type": "cell-based, dog", "details": "for Fura2-experiments on BHK-NCX1 (dose/effect), inhibition / Fura2-experiments on BHK-NCX1 (dose/effect): Na+-free-induced [Ca2+]i increase, reverse mode", "method": "Furthermore, NCX activity in the reverse mode of operation was also studied on single cell by Fura-2AM video-imaging in BHK-NCX1 and BHK-NCX3 cells (Figures 3 and 4). […] Furthermore, patch-clamp electrophysiology in the whole-cell configuration was used to measure NCX activity both in the forward and reverse mode of operation.\n[Ca^2+]i was measured by single-cell computer-assisted video-imaging using Fura-2 acetoxymethyl ester (Fura-2AM). Neurons were loaded with Fura 2AM (10 μM for 30′ at 37 °C). Experiments were carried out with a MicroMax 512BFT cooled CCD camera (Princeton Instruments, Trenton, NJ, USA), LAMBDA 10-2 filter wheeler (Sutter Instruments, Novato, CA), and Meta-Morph/MetaFluor Imaging System software (Universal Imaging, West Chester, PA). Fura-2 fluorescence intensity was measured every 3 s. From each coverslip, 40–60 individual cells were selected and monitored simultaneously. Assuming that the KD for FURA-2 was 224 nM, the equation of Grynkiewicz was used to for calibration.[58]\nThe NCX reverse mode was determined by switching the normal Krebs medium to Na^+-deficient NMDG+ medium (Na^+-free), as previously reported.[57]\nCompounds were solubilized in dimethyl sulfoxide at concentrations of 1 mM, and stock solutions were kept at −20 °C. Appropriate drug dilutions were prepared daily. Statistical analysis was performed with two-way ANOVA, followed by the Newman–Keuls test. Statistical significance was accepted at the 95% confidence level (p < 0.05). Values are expressed as means ± SEM. To obtain EC50’s of newly synthesized compounds and IC50 of compound 4, all data were fitted to the following binding isotherm: […], where X is the drug concentration and n is the Hill coefficient."}, "NCX3 [5]": {"biological_target": "T2, NCX3", "experiment": "Whole-cell patch-clamp electrophysiology of INCX in BHK-NCX3 cells", "assay_type": "cell-based", "details": "compound 4 at 10 μM (Figures 5B and S1)"}, "primary cortical neurons": {"tested_on": "primary cortical neurons", "experiment": "Cell viability (MTT) of primary cortical neurons exposed to chemical hypoxia followed by RX", "assay_type": "cell-based, rat", "method": "Considering that this represents a more demanding experimental paradigm, compound 1 may be considered an interesting tool with a neuroprotective profile. In fact, its neuroprotective effect in cortical neurons exposed to hypoxic conditions was similar to that produced by ischemic PC,[30],[31] a short stimulus inducing ischemic tolerance in neurons (Figure 6B). Furthermore, to better investigate the neuroprotective profile of compound 1, it was tested in primary cortical neurons exposed to chemical hypoxia, followed by RX, a detrimental condition undermining the mitochondrial function. […] However, the specific role of each mode of operation in the neuroprotective effect remains obscure and very difficult to define in this experimental paradigm. […] Therefore, the excessive activation of the NCX3 forward mode determining Ca^2+ extrusion may negatively counterbalance the activation of its reverse mode, favoring Ca^2+ entrance.\nRat cortical neurons were prepared and grown as previously reported.[22],[23] […]\nChemical hypoxia was reproduced by exposing primary cortical neurons for 45 min to a glucose-free medium containing oligomycin (5 μg/mL) plus 2-DG (2 mM), followed by RX (3 h). […] Cell injury was assessed by MTT analysis at the end of each experiment."}, "[6]": {"tested_on": "rat primary cortical neurons", "experiment": "Cell viability (MTT) of primary cortical neurons exposed to OGD followed by RX", "assay_type": "cell-based", "details": "for Neuroprotection in cortical neurons exposed to OGD + RX (in words): added during OGD and RX, 1 at 10 nM, 14 at 10 μM", "method": "Once identified as NCX activity modulators, compounds 1, 4, and 14 were tested on cell viability of primary rat cortical neurons exposed to OGD followed by RX, an experimental condition mimicking hypoxic conditions occurring during stroke. These compounds were added during either OGD or RX phases at the corresponding median effective concentration for their NCX stimulating or inhibiting activity.\nRat cortical neurons were prepared and grown as previously reported.[22],[23] During the exposure to hypoxic conditions, primary cortical neurons at 7/10 DIV were incubated with different concentrations of each previously identified compound. Italian Ministry of Health and the local Animal Care Committee of “Federico II” University of Naples (Italy) approved all animal procedures adopted (D. Lgs. March 4th, 2014 from Italian Ministry of Health; DIR 210/63 UE; 12/2018-UT7).\nHypoxic conditions were induced by exposing rat primary cortical neurons to a oxygen- and glucose-free medium in a humidified atmosphere containing 95% nitrogen and 5% CO2, as previously reported.[22],[23] Cell injury was assessed by MTT analysis. Briefly, neurons were incubated with 1 mL of MTT solution (0.5 mg/mL in PBS). After 1 h of incubation at 37 °C, neurons were dissolved in dimethyl sulfoxide and the rate of MTT variation was measured spectrophotometrically at the wavelength of 540 nm.[22],[57]"}, "NCX3 [7]": {"biological_target": "T2, NCX3", "experiment": "Single-cell Fura-2AM video-imaging, Na+-free-induced [Ca2+]i increase in BHK-NCX3 cells", "assay_type": "cell-based"}}}
{"smiles": "O=C1CN=C(c2ccccc2)c2cc([N+](=O)[O-])ccc2N1CCN1CCCC1", "note": "[Compound 4, 7-Nitro-5-phenyl-1-[2-(pyrrolidin-1-yl)ethyl]-1H-benzo[e][1,4]diazepin-2(3H)-one]", "values": [{"measurement": "Effect on NCX1 activity in the reverse mode (screening, in words)", "setting": "NCX1 [1]", "value": "selective NCX1 inhibitor"}, {"measurement": "Fluo-experiments on BHK-NCX1", "setting": "NCX1 [1]", "value": "80±2"}, {"measurement": "melting point", "value": "70 to 71", "unit": "°C"}, {"measurement": "Fluo-experiments on BHK-NCX3", "setting": "NCX3 [2]", "value": 100}, {"measurement": "Patch-clamp-experiments on BHK-NCX1, forward mode", "setting": "NCX1 [3]; compound 4 at 10 μM (Figure 5)", "value": "85±2.1"}, {"measurement": "Patch-clamp-experiments on BHK-NCX1, reverse mode", "setting": "NCX1 [3]; compound 4 at 10 μM (Figure 5)", "value": "58±1.1"}, {"measurement": "IC50", "setting": "NCX1 [4]", "value": 10, "unit": "µM"}, {"measurement": "Fura2-experiments on BHK-NCX1 (dose/effect), inhibition", "setting": "NCX1 [4]; 1nM", "value": "98±1.3 % of controls"}, {"measurement": "Fura2-experiments on BHK-NCX1 (dose/effect), inhibition", "setting": "NCX1 [4]; 10nM", "value": "97±0.3 % of controls"}, {"measurement": "Fura2-experiments on BHK-NCX1 (dose/effect), inhibition", "setting": "NCX1 [4]; 10µM", "value": "41±2.1 % of controls"}, {"measurement": "Fura2-experiments on BHK-NCX1 (dose/effect), inhibition", "setting": "NCX1 [4]; 30µM", "value": "9±0.5 % of controls"}, {"measurement": "Effect on NCX activity in BHK-NCX3 cells (in words)", "setting": "NCX3 [5]", "value": "failed to modulate"}]}
{"smiles": "O=C1CN=C(c2ccccc2Cl)c2cc([N+](=O)[O-])ccc2N1CN1CCCC1", "note": "[Compound 1, 5-(2-Chlorophenyl)-7-nitro-1-(pyrrolidin-1-ylmethyl)-1H-benzo[e][1,4]diazepin-2(3H)-one]", "values": [{"measurement": "Effect on NCX1 activity in the reverse mode (screening, in words)", "setting": "NCX1 [1]", "value": "selective NCX1 activator"}, {"measurement": "Fluo-experiments on BHK-NCX1", "setting": "NCX1 [1]", "value": "128±1.3"}, {"measurement": "Fluo-experiments on BHK-NCX3", "setting": "NCX3 [2]", "value": 100}, {"measurement": "Patch-clamp-experiments on BHK-NCX1, forward mode", "setting": "NCX1 [3]", "value": "206±2", "unit": "%"}, {"measurement": "Patch-clamp-experiments on BHK-NCX1, reverse mode", "setting": "NCX1 [3]", "value": "305±3", "unit": "%"}, {"measurement": "Neuroprotection: cell viability after chemical hypoxia + RX", "setting": "primary cortical neurons; compound 10 nM during chemical hypoxia (45 min) and RX (3 h), chemical Hyp alone 34, control 100", "value": "46±1.5 % of control"}, {"measurement": "Neuroprotection in cortical neurons exposed to chemical hypoxia + RX (in words)", "setting": "primary cortical neurons; compound 1 at 10 nM", "value": "significantly reduced cell suffering"}, {"measurement": "Fura2-experiments on BHK-NCX1 (dose/effect)", "setting": "NCX1 [4]; 1nM", "value": "120±1.3 % of controls"}, {"measurement": "Fura2-experiments on BHK-NCX1 (dose/effect)", "setting": "NCX1 [4]; 10nM", "value": "178±2.3 % of controls"}, {"measurement": "Fura2-experiments on BHK-NCX1 (dose/effect)", "setting": "NCX1 [4]; 10µM", "value": "190±2.1 % of controls"}, {"measurement": "Neuroprotection in cortical neurons exposed to OGD + RX (in words)", "setting": "[6]", "value": "showed a neuroprotective profile"}, {"measurement": "Neuroprotection: cell viability after OGD + RX", "setting": "[6]; compound 10 nM added during OGD and RX, OGDrx alone 57, normoxic control 100", "value": "71±0.8 % of control"}, {"measurement": "Neuroprotection when preincubated and removed during OGD and RX (in words)", "setting": "[6]; preincubated, then removed during OGD + RX", "value": "continued to protect neurons from hypoxic conditions"}]}
{"smiles": "CC1CCCCN1C(=O)CN1C(=O)CN=C(c2ccccc2)c2cc([N+](=O)[O-])ccc21", "note": "(stereo not shown) [Compound 14, 1-[2-(2-Methylpiperidin-1-yl)-2-oxoethyl]-7-nitro-5-phenyl-1H-benzo[e][1,4]-diazepin-2(3H)-one]", "values": [{"measurement": "EC50", "setting": "NCX3 [7]", "value": 2, "unit": "µM"}, {"measurement": "EC50", "setting": "NCX1 [4]", "value": 0.0035, "unit": "µM"}, {"measurement": "Neuroprotection in cortical neurons exposed to OGD + RX (in words)", "setting": "[6]", "value": "lack of neuroprotection"}]}
